# Key:
# mGluR5 = mGluR5 (UniProt P31424); assay: MGluR5 receptor binding test ([3H]-M-MPEP displacement); set-up: species or system rat; settings: radioligand [3H]-M-MPEP (2 nM); species not given; read-out: mGlu5 Ki
# Protocol: MGluR5 Receptor Binding Tests
# Rat cerebro-cortical membrane preparation was used to determine the binding characteristics of reference compounds and novel compounds to the rat mGluR5. The A18 cell line expressing hmGluR5a (purchased from Euroscreen) was used to determine binding characteristics of the chemical compounds to the human mGluR5a receptor. As radioligand [3H]-M-MPEP (2 nM) was used. The nonspecific binding was determined in the presence of 10 μM M-MPEP.
# rat mGluR1 = target: T1, rat mGluR1 (Rattus norvegicus, UniProt P23385); assay: MGluR1 receptor binding test ([3H]R214127 displacement); settings: rat cerebellar membrane; radioligand [3H]R214127 (3 nM); read-out: mGlu1 Ki
# T1 construct: rat cerebellar membrane preparation was used; from tissue; host or cells: rat cerebellum (membrane preparation)
# Protocol: MGluR1 Receptor Binding Test
# MGluR1 receptor binding testes were performed according to modified method of Lavreysen et al. (Mol. Pharm., 2003, 63, 1082). Based on the high homology between the human and rat mGluR1 receptors, rat cerebellar membrane preparation was used to determine the binding characteristics of reference compounds and novel compounds to the rat mGluR1. As radioligand [3H]R214127 (3 nM) was used and the nonspecific binding was determined in the presence of 1 μM of R214127.
# IC-50 values were determined from displacement curves by nonlinear regression analysis and were converted by equation method of Cheng and Prusoff (Biochem. Pharmacol., 1973, 22, 3099) to Ki values.
# T1 sequence (P23385 19-1199): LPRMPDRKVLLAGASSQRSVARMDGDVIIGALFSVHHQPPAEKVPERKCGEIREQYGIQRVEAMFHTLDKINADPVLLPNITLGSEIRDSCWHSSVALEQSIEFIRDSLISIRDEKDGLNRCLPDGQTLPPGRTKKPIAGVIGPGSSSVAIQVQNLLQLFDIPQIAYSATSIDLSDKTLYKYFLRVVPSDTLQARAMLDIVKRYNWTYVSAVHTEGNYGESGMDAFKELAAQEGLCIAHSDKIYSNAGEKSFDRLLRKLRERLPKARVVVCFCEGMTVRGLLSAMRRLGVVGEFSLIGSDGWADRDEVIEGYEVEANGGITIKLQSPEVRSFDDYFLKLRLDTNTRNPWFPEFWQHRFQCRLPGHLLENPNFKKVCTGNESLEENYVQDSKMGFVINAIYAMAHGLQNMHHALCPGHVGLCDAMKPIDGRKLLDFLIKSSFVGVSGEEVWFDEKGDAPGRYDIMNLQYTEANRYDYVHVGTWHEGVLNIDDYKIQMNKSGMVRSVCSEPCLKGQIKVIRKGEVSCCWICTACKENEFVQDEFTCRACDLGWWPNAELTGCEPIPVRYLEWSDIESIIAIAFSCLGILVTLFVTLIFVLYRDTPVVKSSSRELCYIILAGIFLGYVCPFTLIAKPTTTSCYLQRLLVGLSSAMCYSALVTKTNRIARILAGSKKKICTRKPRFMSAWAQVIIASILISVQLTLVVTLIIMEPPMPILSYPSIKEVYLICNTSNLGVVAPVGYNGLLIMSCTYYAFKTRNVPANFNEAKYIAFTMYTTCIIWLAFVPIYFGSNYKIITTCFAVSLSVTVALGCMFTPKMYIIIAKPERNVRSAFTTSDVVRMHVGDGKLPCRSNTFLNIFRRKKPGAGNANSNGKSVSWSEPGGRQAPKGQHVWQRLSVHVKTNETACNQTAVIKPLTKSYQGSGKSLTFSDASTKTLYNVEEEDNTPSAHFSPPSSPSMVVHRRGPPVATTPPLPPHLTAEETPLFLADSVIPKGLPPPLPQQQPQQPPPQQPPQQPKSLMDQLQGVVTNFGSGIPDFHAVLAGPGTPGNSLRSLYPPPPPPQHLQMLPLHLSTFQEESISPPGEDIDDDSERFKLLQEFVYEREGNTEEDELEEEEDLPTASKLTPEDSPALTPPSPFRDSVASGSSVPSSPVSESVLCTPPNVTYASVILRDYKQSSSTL
Ki (mGluR5),Ki (rat mGluR1),SMILES
< 500 nM,> 1500 nM,"O=S(=O)(c1ccc(Cl)cc1)c1sc2ncccc2c1-c1ccc(Cl)cc1 [Compound 1, 2-(4-Chloro-benzenesulfonyl)-3-(4-chloro-phenyl)-thieno[2,3-b]pyridine]"
< 500 nM,< 500 nM,COc1cccc(-c2c(S(=O)(=O)c3cccc(C#N)c3)sc3ncccc23)c1 [Compound 67]
500 to 1500 nM,> 1500 nM,O=S(=O)(Cc1ccccc1)c1sc2ncccc2c1-c1ccc(Cl)cc1 [Compound 17]
> 1500 nM,> 1500 nM,O=S(=O)(c1sc2ncccc2c1-c1ccc(Cl)cc1)C1CCCCC1 [Compound 16]
< 500 nM,< 500 nM,N#Cc1cccc(S(=O)(=O)c2sc3ncccc3c2-c2ccccc2Cl)c1 [Compound 83]
< 500 nM,< 500 nM,N#Cc1cccc(S(=O)(=O)c2sc3ncccc3c2-c2ccc(Cl)cc2)c1 [Compound 9]
< 500 nM,> 1500 nM,O=S(=O)(c1cccc(C(F)(F)F)c1)c1sc2ncccc2c1-c1ccc(Cl)cc1 [Compound 28]
< 500 nM,< 500 nM,"Nc1cnc2sc(S(=O)(=O)c3ccc(Cl)cc3)c(-c3ccc(Cl)cc3)c2c1 [Compound 79, 2-(4-Chloro-benzenesulfonyl)-3-(4-chloro-phenyl)-thieno[2,3-b]pyridin-5-ylamine]"
< 500 nM,> 1500 nM,N#Cc1ccc(S(=O)(=O)c2sc3ncccc3c2-c2ccc(Cl)cc2)cc1 [Compound 7]
< 500 nM,500 to 1500 nM,Cc1ccc(S(=O)(=O)c2sc3ncccc3c2-c2ccc(Cl)cc2)cc1 [Compound 4]
< 500 nM,500 to 1500 nM,N#Cc1cc(F)cc(S(=O)(=O)c2sc3ncccc3c2-c2ccc(Cl)cc2)c1 [Compound 40]
< 500 nM,> 1500 nM,N#Cc1cccc(S(=O)(=O)c2sc3nc(F)ccc3c2-c2ccc(F)cc2)c1 [Compound 75]
500 to 1500 nM,> 1500 nM,Cc1nc(C)c(S(=O)(=O)c2sc3ncccc3c2-c2ccc(Cl)cc2)s1 [Compound 12]
> 1500 nM,> 1500 nM,Cc1noc(C)c1S(=O)(=O)c1sc2ncccc2c1-c1ccc(Cl)cc1 [Compound 14]
< 500 nM,> 1500 nM,"N#Cc1cc(F)cc(S(=O)(=O)c2sc3nc(F)ccc3c2-c2ccc(Cl)cc2)c1 [Compound 90, 2-(3-Cyano-5-fluoro-benzenesulfonyl)-3-(4-chloro-phenyl)-6-fluoro-thieno[2,3-b]pyridine]"
< 500 nM,500 to 1500 nM,O=S(=O)(c1ccc(Cl)c(Cl)c1)c1sc2ncccc2c1-c1ccc(Cl)cc1 [Compound 80]

Ki (mGluR5),Ki (rat mGluR1),SMILES
< 500 nM,< 500 nM,N#Cc1cccc(S(=O)(=O)c2sc3ncccc3c2-c2cccc(F)c2)c1 [Compound 52]
< 500 nM,500 to 1500 nM,Cc1cccc(-c2c(S(=O)(=O)c3cccc(C#N)c3)sc3ncccc23)c1 [Compound 53]
< 500 nM,> 1500 nM,O=S(=O)(c1cccc(F)c1)c1sc2ncccc2c1-c1ccc(F)cc1 [Compound 78]
500 to 1500 nM,> 1500 nM,CCCCS(=O)(=O)c1sc2ncccc2c1-c1ccc(Cl)cc1 [Compound 11]
< 500 nM,> 1500 nM,Cc1ccc(S(=O)(=O)c2sc3ncccc3c2-c2ccc(F)cc2)cc1F [Compound 82]
< 500 nM,< 500 nM,COc1ccc(S(=O)(=O)c2sc3ncccc3c2-c2ccc(Cl)cc2)cc1 [Compound 48]
< 500 nM,< 500 nM,[O-][S+](c1ccc(Cl)cc1)c1sc2ncccc2c1-c1ccc(Cl)cc1 (centres unmarked) [Compound 2]
500 to 1500 nM,> 1500 nM,O=S(=O)(c1ccc(Cl)cc1Cl)c1sc2ncccc2c1-c1ccc(Cl)cc1 [Compound 33]
< 500 nM,> 1500 nM,O=S(=O)(c1ccc(F)cc1)c1sc2ncccc2c1-c1ccc(Cl)cc1 [Compound 3]
< 500 nM,< 500 nM,N#Cc1cccc(S(=O)(=O)c2sc3ncccc3c2-c2cccc(Cl)c2)c1 [Compound 38]
< 500 nM,> 1500 nM,O=S(=O)(c1cccc(Cl)c1)c1sc2ncccc2c1-c1ccc(Cl)cc1 [Compound 19]
> 1500 nM,> 1500 nM,O=S(=O)(c1ccc(-c2ccccc2)cc1)c1sc2ncccc2c1-c1ccc(Cl)cc1 [Compound 18]
< 500 nM,< 500 nM,Cc1ccc(-c2c(S(=O)(=O)c3cccc(C#N)c3)sc3ncccc23)cc1 [Compound 59]
< 500 nM,500 to 1500 nM,COc1ccc(S(=O)(=O)c2sc3ncccc3c2-c2ccc(Cl)cc2)cc1F [Compound 91]
< 500 nM,< 500 nM,"CC1CCN(c2c(S(=O)(=O)c3cccc(C#N)c3)sc3ncccc23)CC1 [Compound 36, 2-(3-Cyano-benzenesulfonyl)-3-(4-methyl-piperidinyl)-thieno[2,3-b]pyridine]"

# Reference: patent US20100022521A1, “COMPOUNDS” (Hansa Metallwerke AG, priority 2005, published 2010)
